According to US20190264229A1, “DEVICE, SYSTEM AND METHOD FOR INTRACELLULAR DELIVERY OF SUBSTANCES” (Agency for Science, Technology and Research, priority 2016, published 2019):

System: HEK293T cells
Test: Pipette tip filter loading of fluorescein-labeled cargo into HEK293T cells, flow cytometry
Type: cell-based
Settings: pipetted through the filter vs not passed through the filter, 0.4 million HEK293T, 12 hours recovery
Experimental: To establish if other cargoes can be loaded with this method, 0.4 million HEK293T cells were mixed with 50 pmoles of fluorescein-labeled 21nt DNA oligonucleotide, 50 pmoles of fluorescein-labeled 21nt double-stranded siRNA, or 5 μg of fluorescein-dextran (MW 3000-5000) in 500 μl of OptiMEM. The mixture was aspirated and dispensed through the filter with the 1 ml pipette in triplicates. The mixture was then transferred into 2 ml of regular DMEM medium and the cells allowed to recover for 12 hours at 37° C. After which, the cells were washed 3 times with DMEM and collected for flow cytometry.

With Dextran the “percentage of cells having a higher than background fluorescence” value was “clearly higher”.
